Source: patent US12630602B2, “Methods and compositions for treating diseases and disorders of the nervous system” (Rutgers, The State University of New Jersey, priority 2016, dated 2026)

System: retinal cells expressing the inhibitory hM4Di DREADD
Experiment: Electroretinography (ERG) after CNO in rats expressing hM4Di DREADD in retina
Type: in vivo

**Q.** Which results are given for `C[N+]1([O-])CCN(C2=Nc3cc(Cl)ccc3Nc3ccccc32)CC1` [CNO, clozapine N-oxide]?
**A.** ERG wave (CNO by intraperitoneal injection, 20 minutes after, rats with AAV-hSyn-hM4Di (FIG. 2C)): inhibition of the ERG wave; ERG, function in retinal cells (CNO eye drops, 10 minutes and 20 minutes after, rats with AAV-hSyn-hM4Di (FIG. 2D)): decreased function in retinal cells at both timepoints; eliciting DREADD function, eye drops versus systemic delivery (ERG, CNO via eye drops compared with systemic delivery): at least as successful
